According to PubChem BioAssay (NCI):
Several values for one entry are separate records, joined by “and”; a condition that tells them apart may be missing. Identical values can stand only once.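 Protocol summary: plate cells (96-well), add compound at 5 concentrations, incubate 48 h, interpolate endpoints linearly. Here, GI50 denotes the concentration required for 50% inhibition of growth. TGI marks complete inhibition of growth.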

Key:
Assay in all cases: inhibition of tumour cell growth, NCI panel, 48 h
RPMI-8226 leukemia = tested on: RPMI-8226 leukemia
NCI-H522 lung = tested on: NCI-H522 lung
U251 CNS = tested on: U251 CNS
MDA-N = tested on: MDA-N
SF-268 CNS = tested on: SF-268 CNS
EKVX NSCLC = tested on: EKVX NSCLC
BT-549 breast = tested on: BT-549 breast
KM12 colon = tested on: KM12 colon
HCT-15 colon = tested on: HCT-15 colon
M14 melanoma = tested on: M14 melanoma
UACC-62 melanoma = tested on: UACC-62 melanoma
UACC-257 melanoma = tested on: UACC-257 melanoma
LOX IMVI melanoma = tested on: LOX IMVI melanoma
CCRF-CEM leukemia = tested on: CCRF-CEM leukemia
A498 renal = tested on: A498 renal
MDA-MB-231 breast = tested on: MDA-MB-231 breast
HL-60(TB) leukemia = tested on: HL-60(TB) leukemia
OVCAR-8 ovarian = tested on: OVCAR-8 ovarian
K-562 leukemia = tested on: K-562 leukemia
HOP-62 NSCLC = tested on: HOP-62 NSCLC
MCF7 breast = tested on: MCF7 breast
DU-145 prostate = tested on: DU-145 prostate
HCT-116 colon = tested on: HCT-116 colon
MOLT-4 leukemia = tested on: MOLT-4 leukemia
SK-OV-3 ovarian = tested on: SK-OV-3 ovarian
HCC-2998 colon = tested on: HCC-2998 colon
SF-295 CNS = tested on: SF-295 CNS
SNB-75 CNS = tested on: SNB-75 CNS
IGROV1 ovarian = tested on: IGROV1 ovarian
COLO 205 colon = tested on: COLO 205 colon
PC-3 prostate = tested on: PC-3 prostate
786-0 renal = tested on: 786-0 renal
NCI-H460 lung = tested on: NCI-H460 lung
T-47D breast = tested on: T-47D breast
OVCAR-5 ovarian = tested on: OVCAR-5 ovarian
RXF 393 renal = tested on: RXF 393 renal
NCI-H226 lung = tested on: NCI-H226 lung
CAKI-1 renal = tested on: CAKI-1 renal
OVCAR-4 ovarian = tested on: OVCAR-4 ovarian
SN12C renal = tested on: SN12C renal
SK-MEL-28 melanoma = tested on: SK-MEL-28 melanoma
OVCAR-3 ovarian = tested on: OVCAR-3 ovarian
SR leukemia = tested on: SR leukemia
TK-10 renal = tested on: TK-10 renal
SNB-19 CNS = tested on: SNB-19 CNS
SK-MEL-5 melanoma = tested on: SK-MEL-5 melanoma
MALME-3M melanoma = tested on: MALME-3M melanoma
SK-MEL-2 melanoma = tested on: SK-MEL-2 melanoma
HS 578T breast = tested on: HS 578T breast
UO-31 renal = tested on: UO-31 renal
A549 NSCLC = tested on: A549 NSCLC
SW-620 colon = tested on: SW-620 colon
HT29 colon = tested on: HT29 colon
NCI-H23 lung = tested on: NCI-H23 lung
MDA-MB-435 = tested on: MDA-MB-435
NCI/ADR-RES ovarian = tested on: NCI/ADR-RES ovarian
SF-539 CNS = tested on: SF-539 CNS
ACHN renal = tested on: ACHN renal
HOP-92 NSCLC = tested on: HOP-92 NSCLC

Structure (SMILES): CC1=C2O[C@]3(O)C=C2C(=C(O)C1=O)[C@@H]1O[C@H](CC[C@H](C)/C=C(\C)C[C@@H](C)C[C@@H]3C)[C@H](C)[C@H](O)[C@H]1C
- TGI (RPMI-8226 leukemia): 378 nM and 582 nM
- TGI (NCI-H522 lung): 321 nM
- GI50 (U251 CNS): 288 nM
- TGI (U251 CNS): 1160 nM and 752 nM
- GI50 (MDA-N): 204 nM
- TGI (MDA-N): 398 nM and 446 nM
- GI50 (SF-268 CNS): 303 nM
- TGI (SF-268 CNS): 1140 nM and 892 nM
- TGI (EKVX NSCLC): 939 nM and 910 nM
- GI50 (BT-549 breast): 878 nM
- TGI (BT-549 breast): 863 nM and 2150 nM
- GI50 (KM12 colon): 376 nM
- TGI (KM12 colon): 1750 nM and 1270 nM
- GI50 (HCT-15 colon): 180 nM
- TGI (HCT-15 colon): 289 nM and 406 nM
- GI50 (M14 melanoma): 220 nM
- TGI (M14 melanoma): 363 nM and 526 nM
- GI50 (UACC-62 melanoma): 356 nM
- TGI (UACC-62 melanoma): 695 nM and 1160 nM
- GI50 (UACC-257 melanoma): 412 nM
- TGI (UACC-257 melanoma): 860 nM and 2340 nM
- GI50 (LOX IMVI melanoma): 274 nM
- TGI (LOX IMVI melanoma): 793 nM and 739 nM
- GI50 (CCRF-CEM leukemia): 33.9 nM
- TGI (CCRF-CEM leukemia): 296 nM
- GI50 (A498 renal): 177 nM
- TGI (A498 renal): 694 nM and 2930 nM
- GI50 (MDA-MB-231 breast): 285 nM
- TGI (MDA-MB-231 breast): 352 nM and 830 nM
- GI50 (HL-60(TB) leukemia): 203 nM
- TGI (HL-60(TB) leukemia): 617 nM
- GI50 (OVCAR-8 ovarian): 169 nM and 234 nM
- TGI (OVCAR-8 ovarian): 472 nM and 597 nM
- TGI (K-562 leukemia): 4870 nM
- GI50 (HOP-62 NSCLC): 1390 nM
- TGI (HOP-62 NSCLC): 709 nM and 3150 nM
- TGI (MCF7 breast): 556 nM and 395 nM
- TGI (DU-145 prostate): 1030 nM and 659 nM
- GI50 (HCT-116 colon): 201 nM
- TGI (HCT-116 colon): 486 nM and 436 nM
- GI50 (MOLT-4 leukemia): 174 nM
- TGI (MOLT-4 leukemia): 2340 nM and 688 nM
- GI50 (SK-OV-3 ovarian): 1720 nM
- TGI (SK-OV-3 ovarian): 2130 nM and 3110 nM
- GI50 (HCC-2998 colon): 330 nM
- TGI (HCC-2998 colon): 384 nM and 1160 nM
- GI50 (SF-295 CNS): 1640 nM
- TGI (SF-295 CNS): 2300 nM and 3110 nM
- GI50 (SNB-75 CNS): 603 nM
- TGI (SNB-75 CNS): 897 nM and 1350 nM
- GI50 (IGROV1 ovarian): 272 nM
- TGI (IGROV1 ovarian): 324 nM and 664 nM
- GI50 (COLO 205 colon): 165 nM
- TGI (COLO 205 colon): 256 nM and 313 nM
- TGI (PC-3 prostate): 1050 nM and 637 nM
- GI50 (786-0 renal): 180 nM
- TGI (786-0 renal): 324 nM and 342 nM
- GI50 (NCI-H460 lung): 1420 nM
- TGI (NCI-H460 lung): 1820 nM
- GI50 (T-47D breast): 105 nM and 184 nM
- TGI (T-47D breast): 230 nM and 361 nM
- GI50 (OVCAR-5 ovarian): 767 nM
- TGI (OVCAR-5 ovarian): 3190 nM and 2080 nM
- TGI (RXF 393 renal): 434 nM
- GI50 (NCI-H226 lung): 935 nM
- TGI (NCI-H226 lung): 2120 nM and 2390 nM
- GI50 (CAKI-1 renal): 295 nM
- TGI (CAKI-1 renal): 1660 nM and 780 nM
- GI50 (OVCAR-4 ovarian): 229 nM
- TGI (OVCAR-4 ovarian): 560 nM and 637 nM
- GI50 (SN12C renal): 495 nM
- TGI (SN12C renal): 2150 nM and 1940 nM
- TGI (SK-MEL-28 melanoma): 662 nM and 588 nM
- GI50 (OVCAR-3 ovarian): 187 nM
- TGI (OVCAR-3 ovarian): 355 nM and 394 nM
- TGI (SR leukemia): 4180 nM
- GI50 (TK-10 renal): 336 nM
- TGI (TK-10 renal): 372 nM and 1160 nM
- GI50 (SNB-19 CNS): 1580 nM
- TGI (SNB-19 CNS): 1980 nM and 3110 nM
- GI50 (SK-MEL-5 melanoma): 777 nM
- TGI (SK-MEL-5 melanoma): 1660 nM and 1710 nM
- TGI (MALME-3M melanoma): 480 nM and 334 nM
- GI50 (SK-MEL-2 melanoma): 282 nM
- TGI (SK-MEL-2 melanoma): 851 nM and 703 nM
- TGI (HS 578T breast): 1490 nM
- GI50 (UO-31 renal): 232 nM
- TGI (UO-31 renal): 548 nM and 654 nM
- GI50 (A549 NSCLC): 1610 nM
- TGI (A549 NSCLC): 2080 nM and 3390 nM
- TGI (SW-620 colon): 3470 nM
- GI50 (HT29 colon): 216 nM
- TGI (HT29 colon): 529 nM and 504 nM
- GI50 (NCI-H23 lung): 563 nM
- TGI (NCI-H23 lung): 1170 nM and 1880 nM
- GI50 (MDA-MB-435): 199 nM
- TGI (MDA-MB-435): 325 nM and 429 nM
- GI50 (NCI/ADR-RES ovarian): 559 nM
- TGI (NCI/ADR-RES ovarian): 1350 nM and 2680 nM
- GI50 (SF-539 CNS): 240 nM
- TGI (SF-539 CNS): 384 nM and 580 nM
- GI50 (ACHN renal): 182 nM
- TGI (ACHN renal): 239 nM and 323 nM
- GI50 (HOP-92 NSCLC): 177 nM
- TGI (HOP-92 NSCLC): 273 nM and 377 nM
